# Assays:
# [1] = tested on: IRF3; test: IRF3 activity/phosphorylation in THP-1 cells, western blot; type: cell-based, human; conditions: treated with the compound only
# Experimental: First, in order to investigate the effects of the extract in activation of IRF3, THP-1 cells were prepared at a density of 1.5×10^6 cells/well and treated with 30 μg/ml of S. flavescens extract, 60 μg/ml of water fraction thereof, or 30 μg/ml of chloroform fraction thereof for 2 hours. After 2 hours of treatment with the extract and fractions thereof, the cells were put into tubes and pelleted down through centrifugation to remove culture media. Then the cell pellet was washed with PBS once and treated with cell lysis buffer to isolate total protein extracts, which were then subjected to western blot analysis. In this analysis, IRF3 protein level was measured.
# [2] = tested on: IFN-β; test: IFN-β expression in THP-1 cells, Real-time PCR; type: cell-based, human; conditions: 10 μM, 30 μM, and 60 μM for 6 hours
# Experimental: After 6 hours of treatment, the cells were placed in tubes and pelleted down through centrifugation to remove cell media, which was then washed with PBS once and RNA was extracted from the washed cells by using RNeasy Mini Elute Cleanup kit. The concentration and purity of RNA extract was measured by using 2100 Bioanalyzer system (Agilent Technologies), and cDNA was synthesized from this RNA extract by using Taqman reverse transcription reagents kit (Applied Biosystems). The expression level of IFN-β was measured by running Real-time PCR using SYBR Green PCR master mix kit (Applied Biosystem).
# Subsequently, in order to investigate the effect of compound of Formula 1 in expression of IFN-β which is induced by IRF3 activation, the compound of Formula 1 was added to the cell group at a concentration of 10 μM, 30 μM, and 60 μM for 6 hours and then the expression level of IFNβ was measured.
# [3] = tested on: IRF3; test: IRF3 activation in THP-1 cells treated with poly (I:C), western blot; type: cell-based, human; conditions: 30 μM and 60 μM for 1 hour, then 50 μg/ml poly (I:C) for 3 hours, compared to poly (I:C) only
# Experimental: First, in order to investigate the effect of the extract in IRF3 activation, THP-1 cells were prepared at a density of 1.5×10^6 cells/well, and treated with the compound of Formula 1 at a concentration of 30 μM and 60 μM for 1 hour and then treated with 50 μg/ml of poly (I:C) for 3 hours. After 3 hours of treatment, the cells were placed in a tube and pelleted down through centrifugation to remove cell media, which was then washed with PBS once and mixed with NE-PER Nuclear extraction reagent (Thermo scientific) and cell lysis buffer to isolate nuclear extract and total protein extract. The isolated extracts were subject to western blot analysis.
# [4] = tested on: rotavirus KJ56-1 (bovine rotavirus, G8P[7]); test: Proliferation of rotavirus KJ56-1 in TF-104 cells; type: cell-based; conditions: MOI 0.01, 30 μM, 3 days
# Experimental: In order to investigate the inhibitory effects of the above-disclosed compounds represented by Formulas 1 to 8 against proliferation of rotavirus, the following experiment was conducted using the fetal rhesus monkey kidney cell line TF-104. First, TF-104 cells (1×10^5 cells/well) were treated with rotavirus KJ56-1 (bovine rotavirus, […][7]) with multiplicity of infection (MOI) of 0.01 for 1 hour. Then the supernatant was removed from the cell pellet, and the pelleted cells were added to EMEM medium mixed with 1 μg/ml of trypsin and compounds of Formulas 1 to 8 and cultured at 37° C. for 3 days.
# [5] = tested on: rotavirus 205-1; test: Proliferation of rotavirus 205-1 in TF-104 cells; type: cell-based, porcine rotavirus; conditions: 30 μM
# [6] = tested on: TRIF-CFP; test: Distribution of TRIF-CFP in transfected THP-1 cells treated with poly (I:C), confocal microscope; type: cell-based, human; conditions: THP-1 cells transfected with pcDNA3-TRIF-CFP, 30 μM, then 50 μg/ml poly (I:C) for 1 hour
# Experimental: In order to monitor the changes in distribution of TRIF-CFP in vivo by the compound of Formula 1, THP-1 cells (1×10^6 cells/well) were transfected with 0.5 μg of pcDNA3-TRIF-CFP plasmid by using Nucleofector kit V (Lonza, Switzerland) and cultured at 37° C. for 2 days. Then, the transfected cells were placed in 8-chamber slide coated with Poly-L-Lysine and treated with the compound of Formula 1 at 30 μM, and treated with 50 μg/ml of poly (I:C) for 1 hour. After removing the supernatant, the cells were washed with PBS three times, and fixed onto the slide by applying 200 μl of 4% paraformaldehyde and slowfade gold antifade reagent. Then the changes in the distribution of TRIF-CFP were monitored under carl zeins LSM 510 META confocal microscope.
# [7] = tested on: NFkB p65; test: TLR-3 signal pathway western blot, nuclear extract: NFkB p65; type: cell-based, human; conditions: THP-1 cells, 30 μM, 60 μM, and 100 μM 1 hour prior to 50 μg/ml poly (I:C) for 3 hours; concentration-dependent
# Experimental: (§1) First, THP-1 cells were prepared at a density of 1.5×10^6 cells/well and cultured in culture medium RPMI 1640 which lacks FBS for 12 hours. Then, the cells were treated with the compound of Formula 1 at a concentration of 30 μM, 60 μM, and 100 μM 1 hour prior to the poly(I:C) treatment, and then treated with 50 μg/ml of poly (I:C) for 3 hours. After 3 hours of treatment, the cells were placed in a tube and pelleted down by centrifugation to remove cell media, washed with PBS once. Subsequently, the cells were added with NE-PER Nuclear extraction reagents (Thermo scientific) and cell lysis buffer to isolate nuclear extract and total protein extract which were then subject to western blot analysis. For the nuclear extract, the level of NFkB and c-Fos was monitored, and for the total protein extract, the level of MAPKs, IKK isoforms, and IRF3 was measured. […] Furthermore, the phosphorylation of MAPKs, i.e., ERK, JNK, and p-38 which act before AP-1 activation in the pathway was reduced by the compound of Formula 1 in a concentration-dependent manner (FIG. 9e).
# [8] = tested on: c-Fos; test: TLR-3 signal pathway western blot, nuclear extract: c-Fos; type: cell-based, human; conditions: THP-1 cells, 30 μM, 60 μM, and 100 μM 1 hour prior to 50 μg/ml poly (I:C) for 3 hours; concentration-dependent
# Experimental: as §1
# [9] = tested on: IKK; test: TLR-3 signal pathway western blot, total protein: IKK phosphorylation; type: cell-based, human; conditions: THP-1 cells, 30 μM, 60 μM, and 100 μM 1 hour prior to 50 μg/ml poly (I:C) for 3 hours; concentration-dependent
# Experimental: as §1
# [10] = tested on: IkB; test: TLR-3 signal pathway western blot, total protein: IkB phosphorylation; type: cell-based, human; conditions: THP-1 cells, 30 μM, 60 μM, and 100 μM 1 hour prior to 50 μg/ml poly (I:C) for 3 hours; concentration-dependent
# Experimental: as §1
# [11] = tested on: ERK; test: TLR-3 signal pathway western blot, total protein: ERK phosphorylation; type: cell-based, human; conditions: THP-1 cells, 30 μM, 60 μM, and 100 μM 1 hour prior to 50 μg/ml poly (I:C) for 3 hours; concentration-dependent
# Experimental: as §1
# [12] = tested on: JNK; test: TLR-3 signal pathway western blot, total protein: JNK phosphorylation; type: cell-based, human; conditions: THP-1 cells, 30 μM, 60 μM, and 100 μM 1 hour prior to 50 μg/ml poly (I:C) for 3 hours; concentration-dependent
# Experimental: as §1
# [13] = tested on: p-38; test: TLR-3 signal pathway western blot, total protein: p-38 phosphorylation; type: cell-based, human; conditions: THP-1 cells, 30 μM, 60 μM, and 100 μM 1 hour prior to 50 μg/ml poly (I:C) for 3 hours; concentration-dependent
# Experimental: as §1
smiles,measurement,setting,value
"C=C(C)C(CCC(C)(C)O)Cc1c(O)cc(O)c2c1OC(c1ccc(O)cc1O)CC2=O (stereo not shown) [Formula 1, 5,7,2′,4′-trihydroxy-8-(5-hydroxy-2-isoprenyl-5-methyl-hexyl-)flavanone]",IRF3 activity,[1],concentration-dependent increased
same,IFN-β expression,[2],concentration-dependent increase
same,IRF3 activation,[3],higher level of IRF3 activation
same,proliferation of rotavirus KJ56-1,[4],significantly inhibited
same,proliferation of rotavirus 205-1,[5],significantly inhibited
same,distribution of TRIF-CFP,[6],even distribution of TRIF-CFP in the cytoplasm
same,transport of NFkB p65 to nucleus,[7],reduced
same,transport of c-Fos to nucleus,[8],reduced
same,phosphorylation of IKK,[9],reduced
same,phosphorylation of IkB,[10],reduced
same,phosphorylation of ERK,[11],reduced
same,phosphorylation of JNK,[12],reduced
same,phosphorylation of p-38,[13],reduced
